Laboratory results reported in publication PMC10649274 (International Journal of Molecular Sciences, 2023).
“And” between values parts separate entries of the source, which are not always exact repeats. Identical values can stand only once. Like-named read-outs stand apart in the source and are kept apart here.

Assays:
[1] = test system: rat retinal excitotoxicity model; settings: cited from earlier work
native NMDA receptors [2] = assay: Analysis of voltage dependence of NMDA receptor block (Woodhull model with voltage-independent component, Equation (2)); format: cell-based, rat
Method: NMDA receptors were activated with 100 µM NMDA plus 10 µM glycine unless otherwise stated. The percentages of blocking of the steady-state or peak currents by different drug concentrations were measured at −80, −30 or +30 mV holding voltages. Kinetics of transient processes of more than 20 ms duration were approximated with single or double exponential functions. In case of double exponential fitting, the weighted time constant was used.
The voltage dependence of compounds’ action was analyzed with the classical Woodhull model with the addition of a voltage-independent component. […] Kb is the affinity of a drug for the channel, and δ is the electrical depth of the binding site. The δ value reflects the fraction of membrane electric field that the charged blocking molecule crosses on its pathway between the external media and the binding site in the channel.
Thus, we deduced Equation (2), taking it into account and assuming that the binding to the deep and shallow site is independent:(2) B=100−100/(1+C/(Kvd∗exp〖Fzδ/RTV〗)+C/Kvi+(C∗C)/((Kvd∗exp〖Fzδ/RTV〗∗Kvi))
In this equation, Kvd is the affinity of the drug to the deep site, Kvi—the affinity of the drug to the shallow site, and other parameters are the same as in Equation (1).
All experimental data are presented as the mean ± SD estimated from at least four experiments (cells). Significance of the effects was tested with t-tests. Differences were considered significant at p < 0.05. Concentration dependencies were approximated with Hill equation. Voltage dependencies were approximated with Equation (2). […] Approximation error values were taken as the precision measures.

[3] = test system: animal pancreatitis models; settings: cited from earlier work
native NMDA receptors [4] = assay: Whole-cell patch clamp of NMDA plus glycine induced currents in isolated CA1 pyramidal neurons; format: cell-based, rat
Method: The rats were anesthetised with sevoflurane and then decapitated. The brains were brought out quickly and cooled to 2–4 °C. […] All experiments were performed at room temperature.
Vibrodissociation method was used to free CA1 pyramidal neurons from slices. This method allows for isolating cells without enzymatic treatment and keeping them in more native state. Pyramidal cells were isolated from the stratum pyramidale and distinguished from non-pyramidal cells on the basis of pyramidal-like somata and preserved apical dendrites.
To record membrane currents in response to applications of NMDA and glycine, the whole-cell configuration of patch clamp technique was used. Series resistance (<20 MΩ) was compensated by 70–80% and monitored during experiments. Only cells with stable holding currents were used in further analysis. The current signals were amplified using EPC-8 (HEKA Electronics, Lambrecht, Germany), filtered at 5 kHz, sampled, and stored on a personal computer. RSC-200 (BioLogic Science Instruments, Claix, France) perfusion system was used to apply the drugs under computer control. […] The pipettes with resistance of 2–5 MΩ were filled with the following solution (in mM): CsF 100, CsCl 40, NaCl 5, CaCl2 0.5, EGTA 5, HEPES 10 (pH adjusted to 7.2 with CsOH). […] Other reagents were purchased from MedChemExpress (Monmouth Junction, NJ, USA), Sigma (St. Louis, MO, USA), or Tocris Bioscience (Bristol, UK).
NMDA receptors were activated with 100 µM NMDA plus 10 µM glycine unless otherwise stated. […] Kinetics of transient processes of more than 20 ms duration were approximated with single or double exponential functions. In case of double exponential fitting, the weighted time constant was used.

[5] = molecular target: GLUN2B-containing NMDA receptor; settings: fractionated rat brain membranes; read-out: IC50 of [3H]ifenprodil binding inhibition; cited from earlier work
native NMDA receptors [6] = settings: cited from earlier work
native NMDA receptors [7] = settings: cited from earlier work; remark: listed apart in the source

N=C(N)c1ccc2cc(OC(=O)c3ccc(NC4=NCCN4)cc3)ccc2c1 [Sepimostat]
retinal protection [1]: retinoprotective properties | voltage dependence of NMDA receptor inhibition (native NMDA receptors [2]; 5 µM): mostly voltage-independent with a small voltage-dependent component | Kd (native NMDA receptors [2]; Equation (2) fit, zδ free, steady-state, read-out: Kvd, constant for voltage-dependent binding (deep site)): ~130 µM | Kd (native NMDA receptors [2]; Equation (2) fit, zδ free, steady-state, read-out: Kvi, constant for voltage-independent binding (shallow site)): 7 ± 1 µM | Kd (native NMDA receptors [2]; Equation (2) with fixed zδ 0.55 (monocation), read-out: Kvd, fixed zδ (converted)): 102 µM | Kd (native NMDA receptors [2]; Equation (2) with fixed zδ 0.55 (monocation), read-out: Kvi, fixed zδ (converted)): 7 ± 1 µM | activity in animal pancreatitis models [3]: significant activity | nature of voltage-independent component of inhibition (native NMDA receptors [4]): agonist-dependent but non-competitive | % block (native NMDA receptors [4]; 5 µM, 3 mM NMDA, +30 mV, n = 4): 25 ± 4% | % block (native NMDA receptors [4]; 5 µM, 3 mM NMDA, −30 mV, n = 10): 20 ± 5% | inhibition at high NMDA concentrations (native NMDA receptors [4]; 5 µM, 1000 and 3000 µM NMDA, −80 mV): about 50% | % block (native NMDA receptors [4]; 5 µM, +30 mV, representative trace, Figure 2A): 47% | % block (native NMDA receptors [4]; 5 µM, −30 mV, NMDA 30 µM, Figure 5A): 78% | % block (native NMDA receptors [4]; 5 µM, −30 mV, NMDA 1 mM, Figure 5A): 26% | % block (native NMDA receptors [4]; 5 µM, −30 mV, representative trace, Figure 2A): 49% | % block (native NMDA receptors [4]; 5 µM, −80 mV, NMDA 30 µM, Figure 5A): 78% | % block (native NMDA receptors [4]; 5 µM, −80 mV, NMDA 1 mM, Figure 5A): 44% | % block (native NMDA receptors [4]; 5 µM, −80 mV, representative trace, Figure 2A): 57% | % block (native NMDA receptors [4]; 5 µM, −120 mV, representative trace, Figure 2A): 72% | plateau/peak ratio in the presence of blocker (native NMDA receptors [4]; 10 µM, −80 mV, control 0.6 ± 0.1, n = 4): 1.1 ± 0.3 | normalized plateau/peak ratio ((IBS/IB0)/(ICS/IC0)) (native NMDA receptors [4]; 10 µM, −80 mV, n = 4): 1.8 ± 0.1 | trapping in double-pulse protocol (native NMDA receptors [4]; 30 µM, n = 5): no signs of trapping | τfall of overshoot (native NMDA receptors [4]; 30 µM, overshoot falling phase, n = 4): 770 ± 140 ms | τrise of overshoot (native NMDA receptors [4]; 30 µM, overshoot rising phase, n = 4): 62 ± 15 ms | amplitude of overshoot relative to steady-state control response (native NMDA receptors [4]; 30 µM, washout in the presence of agonists, n = 4): 1.8 ± 0.3 | % block (native NMDA receptors [4]; 30 µM, −80 mV): > 90% | amplitude of tail currents relative to steady-state control response (native NMDA receptors [4]; 30 µM, −80 mV, washout in the absence of agonists, n = 6): 1.3 ± 0.5 | IC50 (native NMDA receptors [4]; +30 mV holding voltage, steady-state, read-out: IC50, steady-state component): 5.8 ± 1.5 µM | change of inhibition with increase of NMDA concentration (native NMDA receptors [4]; −30 mV): attenuated | competition with Mg2+ for binding site in channel pore (native NMDA receptors [4]; −30 mV, 1 mM Mg2+): does not compete | IC50 (native NMDA receptors [4]; −30 mV, 1 mM Mg2+, n = 7, read-out: IC50 in the presence of magnesium): 3.6 ± 1.1 µM | IC50 (native NMDA receptors [4]; −30 mV, no Mg2+, n = 5, read-out: IC50 in the absence of magnesium): 3.6 ± 1 µM | change of inhibition with increase of NMDA concentration from 30 to 1000 µM (native NMDA receptors [4]; −80 mV): significantly decreased | type of channel block (interaction with channel gate) (native NMDA receptors [4]; −80 mV): foot-in-the-door | IC50 (native NMDA receptors [4]; −80 mV holding voltage, NMDA 100 µM + glycine 10 µM, steady-state (plateau) current, read-out: IC50, steady-state component): 3.5 ± 0.3 µM | IC50 (native NMDA receptors [4]; −80 mV, NMDA 100 µM + glycine 10 µM, peak current, read-out: IC50, peak component): 1.8 ± 0.4 µM | IC50 [5]: 29.8 µM

N=C(N)c1ccc2cc(OC(=O)c3ccc(N=C(N)N)cc3)ccc2c1 [Nafamostat]
voltage dependence of NMDA receptor inhibition (native NMDA receptors [6]): strongly voltage-dependent | effect on plateau/peak ratio (native NMDA receptors [7]): did not significantly change the plateau/peak ratio | overshoots after washout (native NMDA receptors [7]): did not demonstrate overshoots | type of channel block (interaction with channel gate) (native NMDA receptors [7]): foot-in-the-door | activity in the presence of magnesium (native NMDA receptors [7]; −30 mV, 1 mM Mg2+): attenuated in the presence of magnesium | IC50 (native NMDA receptors [7]; −30 mV, 1 mM Mg2+, read-out: IC50 in the presence of magnesium): 1.7 ± 0.2 µM | IC50 (native NMDA receptors [7]; −80 mV holding voltage, native NMDA receptors, earlier papers of the authors, read-out: IC50, −80 mV): 0.2 ± 0.04 µM | retinal protection [1]: retinoprotective properties | Kd (native NMDA receptors [2]; Equation (2) fit, zδ free, reanalysis of the authors' earlier voltage dependence data [16],[17], read-out: Kvd): 12 ± 3 µM | Kd (native NMDA receptors [2]; Equation (2) fit, zδ free, reanalysis of the authors' earlier voltage dependence data [16],[17], read-out: Kvi): 2.9 ± 0.5 µM | Kd (native NMDA receptors [2]; Equation (2) with fixed zδ (0.55 mono-, 1.1 dicationic), reanalysis of earlier data [16],[17], read-out: Kvd, fixed zδ (converted)): 10 µM and 10.5 µM | Kd (native NMDA receptors [2]; Equation (2) with fixed zδ (0.55 mono-, 1.1 dicationic), reanalysis of earlier data [16],[17], read-out: Kvi, fixed zδ (converted)): 3 µM | activity in animal pancreatitis models [3]: significant activity | change of inhibition with increase of NMDA concentration from 30 to 1000 µM (native NMDA receptors [4]; holding voltage not stated): not attenuated significantly | IC50 [5]: 4.52 µM
